Values quoted from earlier work in PMC8025584, “Identification of multipotent drugs for COVID-19 therapeutics with the evaluation of their SARS-CoV2 inhibitory activity” (Computational and Structural Biotechnology Journal, 2021).
Structures can show the parent of a compound that is named as a salt. Where two headings read alike, the source gives them in different places.

Tested on: differentially expressed human proteins in COVID-19
Settings: cited from earlier work
[1] = gene HCK, drug-gene interaction listed in DGIdb export, ref DGIdb
[2] = gene TNF, drug-gene interaction listed in DGIdb export, ref DGIdb
[3] = gene CACNA1A, drug-gene interaction listed in DGIdb export, ref DGIdb

In the case of `C[C@@H]1O[C@@H](O[C@@H]2[C@@H](NC(=O)c3cc(=O)[nH]c(=O)[nH]3)C[C@@H](C(=O)NCCNC(=O)COCCOCC(=O)Nc3cc(S(=O)(=O)O)cc4cc(S(=O)(=O)O)cc(S(=O)(=O)O)c34)C[C@H]2O[C@@H]2O[C@H](CO)[C@H](O)[C@H](O[C@@H](CC3CCCCC3)C(=O)O)[C@H]2OC(=O)c2ccccc2)[C@@H](O)[C@H](O)[C@@H]1O` [[…]], the interaction_types (gene SELL, ref DGIdb) is listed as “antagonist”.

For `NS(=O)(=O)c1cc2c(cc1Cl)NC(C(Cl)Cl)NS2(=O)=O` (centres unmarked) [TRICHLORMETHIAZIDE, reference compound], the interaction_types (gene CA1, ref DGIdb) is given as “inhibitor”.

In the case of `COc1ccc2c(c1)[C@]13CCCC[C@@H]1[C@H](C2)N(C)CC3` [DEXTROMETHORPHAN], the interaction_types (gene CYBB, ref DGIdb) is listed as “inhibitor”.

For `NS(=O)(=O)c1cc2c(cc1C(F)(F)F)NCNS2(=O)=O` [HYDROFLUMETHIAZIDE], the interaction_types (gene CA1, ref DGIdb) is listed as “inhibitor”.

In the case of ALDESLEUKIN, the interaction_types is given as “agonist”.

In the case of `O=c1cc(-c2ccccc2)oc2cc(O)cc(O)c12` [CHRYSIN], the interaction_types (gene CYP1A1, ref DGIdb) is listed as “inhibitor”.

For `CSCCNc1nc(SCCC(F)(F)F)nc2c1ncn2[C@@H]1O[C@H](COP(=O)(O)OP(=O)(O)C(Cl)(Cl)P(=O)(O)O)[C@@H](O)[C@H]1O` [Cangrelor, reference compound], the interaction_types (gene P2RY13, ref DGIdb) is given as “antagonist”.

In the case of `CCC1NC(=O)c2cc(S(N)(=O)=O)c(Cl)cc2N1` (centres unmarked) [QUINETHAZONE], the interaction_types (gene CA1, ref DGIdb) is listed as “inhibitor”.

For `COc1cc(Nc2ncc(F)c(Nc3ccc4c(n3)N(COP(=O)(O)O)C(=O)C(C)(C)O4)n2)cc(OC)c1OC` [FOSTAMATINIB, reference compound], the interaction_types (gene EIF2AK2, ref DGIdb) is listed as “inhibitor”, the interaction_types (gene FGR, ref DGIdb) is listed as “inhibitor” and the interaction_types (gene GAK, drug-gene interaction listed in DGIdb export, ref DGIdb) is listed as “inhibitor”. The interaction_types [1] was “inhibitor”, the interaction_types (gene PTK2B, ref DGIdb) was “inhibitor” and the interaction_types (gene TAOK3, ref DGIdb) was “inhibitor”.

In the case of `CCN(CC)CCCC(C)Nc1ccnc2cc(Cl)ccc12` (centres unmarked) [CHLOROQUINE], the interaction_types [2] is given as “inhibitor”.

In the case of `NS(=O)(=O)c1nnc(NS(=O)(=O)c2ccccc2)s1` [BENZOLAMIDE], the interaction_types (gene CA1, ref DGIdb) is listed as “inhibitor”.

For `Cn1cc(C2=C(c3cn(C)c4cc([N+](=O)[O-])ccc34)C(=O)NC2=O)c2ccccc21` [ENMD-981693], the interaction_types (gene FGR, ref DGIdb) is given as “inhibitor” and the interaction_types [1] is given as “inhibitor”.

For `CC(C)[C@@H](NC(=O)NCC(C)(C)O)C(=O)N1CC[C@](O)(c2ccc(Cl)cc2)C(C)(C)C1` [BMS-817399], the interaction_types (gene CCR1, drug-gene interaction listed in DGIdb export, ref DGIdb) is listed as “antagonist”.

For `CN1CCC[C@H]1c1cccnc1` [NICOTINE], the interaction_types is listed as “inhibitor”.

In the case of `Nc1ncnc2c1ncn2[C@@H]1O[C@H](COP(=O)(O)OP(=O)(O)OP(=O)(O)O)[C@@H](O)[C@H]1O` [ADENOSINE TRIPHOSPHATE], the interaction_types (gene P2RY13, ref DGIdb) is listed as “agonist”.

In the case of `C=CC(=O)N1CCC([C@@H]2CCNc3c(C(N)=O)c(-c4ccc(Oc5ccccc5)cc4)nn32)CC1` [ZANUBRUTINIB], the interaction_types (gene FGR, ref DGIdb) is given as “inhibitor”.

For `C[C@@H](C(=O)O)c1ccc(-c2ccccc2)c(F)c1` [TARENFLURBIL], the interaction_types (gene PSENEN, ref DGIdb) is given as “modulator”.

In the case of `NS(=O)(=O)c1cc2c(cc1Cl)N=CNS2(=O)=O` [CHLOROTHIAZIDE], the interaction_types (gene CA1, ref DGIdb) is listed as “inhibitor”.

For `CSCC[C@@H]1NC(=O)[C@H](CC(C)C)NC(=O)[C@H](CCCNC(=N)N)NC(=O)[C@H](CO)NC(=O)[C@@H]2CSSC[C@@H]3NC(=O)[C@H](CO)NC(=O)CNC(=O)[C@H]([C@@H](C)O)NC(=O)[C@H](CSSC[C@H](N)C(=O)N[C@@H](CCCCN)C(=O)NCC(=O)N[C@@H](CCCCN)C(=O)NCC(=O)N[C@@H](C)C(=O)N[C@@H](CCCCN)C(=O)N2)NC(=O)[C@H](CSSC[C@@H](C(N)=O)NC(=O)[C@H](CCCCN)NC(=O)CNC(=O)[C@H](CO)NC(=O)[C@H](CCCNC(=N)N)NC3=O)NC(=O)[C@H](CC(=O)O)NC(=O)[C@H](Cc2ccc(O)cc2)NC1=O` [ZICONOTIDE], the interaction_types is given as “inhibitor”.

In the case of `Cc1ccc(C(=O)Nc2ccc(S(=O)(=O)O)c3cc(S(=O)(=O)O)cc(S(=O)(=O)O)c23)cc1NC(=O)c1cccc(NC(=O)Nc2cccc(C(=O)Nc3cc(C(=O)Nc4ccc(S(=O)(=O)O)c5cc(S(=O)(=O)O)cc(S(=O)(=O)O)c45)ccc3C)c2)c1` [SURAMIN], the interaction_types (gene P2RY13, ref DGIdb) is listed as “antagonist”.

In the case of BASILIXIMAB, the interaction_types (gene IL2RG, ref DGIdb) is given as “inhibitor”.

For `COc1cc([C@H]2C(C#N)=C(N)Oc3c2ccc(N)c3N)cc(Br)c1OC` [CROLIBULIN], the interaction_types (gene TUBA4A, ref DGIdb) is given as “inhibitor”.

In the case of BRENTUXIMAB VEDOTIN, the interaction_types (gene TUBA4A, ref DGIdb) is listed as “inhibitor”.

For `CC(C)COCC(CN(Cc1ccccc1)c1ccccc1)N1CCCC1` (centres unmarked) [BEPRIDIL], the interaction_types [3] is listed as “inhibitor”.

For ADALIMUMAB, the interaction_types [2] is given as “antibody¦inhibitor”.

For `Nc1ccncc1` [DALFAMPRIDINE], the interaction_types (gene KCNH7, ref DGIdb) is given as “blocker”.

In the case of `CC1=C(/C=C/C(C)=C\C=C\C(C)=C\C(=O)O)C(C)(C)CCC1` [ALITRETINOIN, reference compound], the interaction_types (gene RXRB, ref DGIdb) is listed as “agonist”.

In the case of `C1CCC2(C1)C1CN(CC3CC3)CC2CN(CC2CC2)C1`, the interaction_types (gene KCNH7, ref DGIdb) is given as “blocker”.

In the case of `CN1C(CCl)Nc2cc(Cl)c(S(N)(=O)=O)cc2S1(=O)=O` (centres unmarked) [METHYCLOTHIAZIDE], the interaction_types (gene CA1, ref DGIdb) is given as “inhibitor”.

In the case of `CC1(C)OC(c2ccc(S(N)(=O)=O)cc2)=C(c2cccc(F)c2)C1=O` [POLMACOXIB], the interaction_types (gene CA1, ref DGIdb) is given as “inhibitor”.

In the case of `Cc1ccc(-n2nc(C(C)(C)C)cc2NC(=O)NCc2cc(F)ccc2Oc2ccc3c(cnn3CCO)c2)cc1` [PEXMETINIB], the interaction_types [1] is listed as “inhibitor”.

In the case of `COC(=O)c1ccc2c(c1)NC(=O)/C2=C(\Nc1ccc(N(C)C(=O)CN2CCN(C)CC2)cc1)c1ccccc1` [NINTEDANIB, reference compound], the interaction_types (gene FGR, ref DGIdb) is given as “inhibitor” and the interaction_types [1] is given as “inhibitor”.

In the case of `Cc1oncc1C(=O)Nc1ccc(C(F)(F)F)cc1` [LEFLUNOMIDE], the interaction_types (gene PTK2B, ref DGIdb) is listed as “antagonist”.

In the case of `N[C@@H](CCC(=O)N[C@@H](CS)C(=O)NCC(=O)O)C(=O)O` [GLUTATHIONE], the interaction_types is listed as “cofactor”.

In the case of `CN(C)C(=O)C(CCN1CCC(O)(c2ccc(Cl)cc2)CC1)(c1ccccc1)c1ccccc1` [LOPERAMIDE], the interaction_types [3] is listed as “inhibitor”.

For `COc1ccc(/C=C\c2cc(OC)c(OC)c(OC)c2)cc1OP(=O)(O)O` [FOS[…]], the interaction_types (gene TUBA4A, ref DGIdb) is listed as “inhibitor”.

For `CC1=C(/C=C/C(C)=C/C=C/C(C)=C/C(=O)O)C(C)(C)CCC1` [TRETINOIN, reference compound], the interaction_types (gene RXRB, ref DGIdb) is given as “agonist”.

For `N[C@@H](Cc1c[nH]cn1)C(=O)O` [HISTIDINE], the interaction_types (gene CA1, ref DGIdb) is given as “activator”.

In the case of `C/C(=C\c1ccc(OCCN2CCOCC2)cc1)c1ccc2c(c1)C(C)(C)CCC2(C)C` [MOFAROTENE], the interaction_types (gene RXRB, ref DGIdb) is listed as “modulator”.

For `NS(=O)(=O)Cc1noc2ccccc12` [ZONISAMIDE], the interaction_types (gene CA1, ref DGIdb) is listed as “inhibitor”.

In the case of CEPROTIN, the interaction_types (gene F5, drug-gene interaction listed in DGIdb export, ref DGIdb) is given as “inactivator”.

For `CNC(=O)c1ccc(Nc2ncc(C(F)(F)F)c(NCc3nccnc3N(C)S(C)(=O)=O)n2)cc1` [DEFACTINIB], the interaction_types (gene PTK2B, ref DGIdb) is given as “inhibitor”.

In the case of `CNC[C@H](O)c1ccc(O)c(O)c1` [EPINEPHRINE], the interaction_types is listed as “agonist¦antagonist”.

For `CO[C@H]1C(=O)[C@]2(C)[C@@H](OC)C[C@H]3OC[C@@]3(OC(C)=O)[C@H]2[C@H](OC(=O)c2ccccc2)[C@]2(O)C[C@H](OC(=O)[C@H](O)[C@@H](NC(=O)OC(C)(C)C)c3ccccc3)C(C)=C1C2(C)C` [CABAZITAXEL, reference compound], the interaction_types (gene TUBA4A, ref DGIdb) is given as “inhibitor¦binder”.

In the case of `CC[C@]1(O)C[C@H]2CN(CCc3c([nH]c4ccccc34)[C@@](C(=O)OC)(c3cc4c(cc3OC)N(C=O)[C@H]3[C@@](O)(C(=O)OC)[C@H](OC(C)=O)[C@]5(CC)C=CCN6CC[C@]43[C@@H]65)C2)C1` [VINCRISTINE SULFATE], the interaction_types (gene TUBA4A, ref DGIdb) is given as “inhibitor”.

In the case of `CCS(=O)(=O)Nc1ccc2c(c1)/C(=C(/Nc1ccc(CN3CCCCC3)cc1)c1ccccc1)C(=O)N2` [HESPERADIN], the interaction_types [1] is listed as “inhibitor” and the interaction_types (gene PTK2B, ref DGIdb) is listed as “inhibitor”.

In the case of `COc1cc(Nc2c(C#N)cnc3cc(OCCCN4CCN(C)CC4)c(OC)cc23)c(Cl)cc1Cl` [BOSUTINIB], the interaction_types [1] is listed as “inhibitor”.

In the case of `Nc1ncnc2c1ncn2[C@@H]1O[C@H](CO)[C@@H](O)[C@H]1O` [ADENOSINE, reference compound], the interaction_types (gene PI4K2B, ref DGIdb) is listed as “inhibitor”.

B1: DACLIZUMAB (antibody, chains of the INN, looked up, V domains shown)
VH: QVQLVQSGAEVKKPGSSVKVSCKASGYTFTSYRMHWVRQAPGQGLEWIGYINPSTGYTEYNQKFKDKATITADESTNTAYMELSSLRSEDTAVYYCARGGGVFDYWGQGTLVTVSS
VL: DIQMTQSPSTLSASVGDRVTITCSASSSISYMHWYQQKPGKAPKLLIYTTSNLASGVPARFSGSGSGTEFTLTISSLQPDDFATYYCHQRSTYPLTFGQGTKVEVK
In the case of B1, the interaction_types (gene IL2RG, ref DGIdb) is listed as “inhibitor”.

B2: OTLERTUZUMAB (antibody, chains of the INN, looked up, V domains shown)
VH: EVQLVQSGAEVKKPGESLKISCKGSGYSFTGYNMNWVRQMPGKGLEWMGNIDPYYGGTTYNRKFKGQVTISADKSISTAYLQWSSLKASDTAMYYCARSVGPFDSWGQGTLVTVSS
VL: EIVLTQSPATLSLSPGERATLSCRASENVYSYLAWYQQKPGQAPRLLIYFAKTLAEGIPARFSGSGSGTDFTLTISSLEPEDFAVYYCQHHSDNPWTFGQGTKVEIK
For B2, the interaction_types (gene CD37, ref DGIdb) is listed as “antibody”.

B3: ASELIZUMAB (antibody, chains of the INN, looked up, V domains shown)
VH: EVQLVESGGGLVQPGGSLRLSCAASGFTFSTYAMSWVRQAPGKGLEWVASISTGGSTYYPDSVKGRFTISRDNAKNTLYLQMNSLRAEDTAVYYCARDYDGYFDYWGQGTLVTVSS
VL: DIQMTQSPSSLSASVGDRVTITCKASQSVDYDGDSYMNWYQQKPGKAPKLLIYAASNLESGIPSRFSGSGSGTDFTLTISSLQPEDFATYYCQQSNEDPWTFGQGTKVEIK
In the case of B3, the interaction_types (gene SELL, ref DGIdb) is listed as “inhibitor”.
